From ChEMBL document CHEMBL1687833, “Genetic context and biochemical characterization of the IMP-18 metallo-beta-lactamase identified in a Pseudomonas aeruginosa isolate from the United States” (2011)
Converted amounts (≈) assume the structure as drawn.

Legend:
[1] = tested on: Pseudomonas aeruginosa; test: Activity of Pseudomonas aeruginosa strain PS 297 metallo-beta-lactamase IMP-18 expressed in Escherichia coli BL21(DE3) assessed as substrate hydrolysis using 100 uM nitrocefin
[2] = tested on: Escherichia coli; test: Antimicrobial activity against Escherichia coli DH5alpha carrying Pseudomonas aeruginosa strain PS 297 IMP-1-pLBII after 18 hrs by microdilution broth method; format: functional; conditions: DH5[alpha]
[3] = tested on: Escherichia coli; test: Antimicrobial activity against Escherichia coli DH5alpha carrying empty pBC-SK after 18 hrs by microdilution broth method; format: functional; conditions: DH5[alpha]
[4] = tested on: Escherichia coli; test: Antimicrobial activity against Escherichia coli DH5alpha carrying Pseudomonas aeruginosa strain PS 297 IMP-18-pLBII after 18 hrs by microdilution broth method; format: functional; conditions: DH5[alpha]
[5] = tested on: Pseudomonas aeruginosa; test: Ratio of Kcat to Km for Pseudomonas aeruginosa strain PS 297 metallo-beta-lactamase IMP-1 expressed in Escherichia coli BL21(DE3) assessed as substrate hydrolysis using 100 uM nitrocefin
[6] = tested on: Pseudomonas aeruginosa; test: Activity of Pseudomonas aeruginosa strain PS 297 metallo-beta-lactamase IMP-1 expressed in Escherichia coli BL21(DE3) assessed as substrate hydrolysis using 100 uM nitrocefin
[7] = tested on: Pseudomonas aeruginosa; test: Ratio of Kcat to Km for Pseudomonas aeruginosa strain PS 297 metallo-beta-lactamase IMP18 expressed in Escherichia coli BL21(DE3) assessed as substrate hydrolysis using 100 uM nitrocefin

Which Km [1] does the source give for C[C@@H](O)[C@H]1C(=O)N2C(C(=O)O)=C(S[C@@H]3CN[C@H](C(=O)Nc4cccc(C(=O)O)c4)C3)[C@H](C)[C@H]12 here?
Its Km is 2.6 µM.

And the kcat [1]?
The kcat was 0.03 s⁻¹.

And the MIC [2]?
Its MIC is 2 µg/mL (≈ 4.21 µM).

What about the MIC [3] of the same compound?
The MIC was at most 0.015 µg/mL.

What about the MIC [4] of the same compound?
The MIC was 0.12 µg/mL (≈ 0.252 µM).

What about the kcat/Km [5] of the same compound?
Its kcat/Km is 7.6 ×10⁵ /M/s.

What about the Km [6] of the same compound?
Its Km is 21 µM.

What about the kcat [6] of the same compound?
Its kcat is 16 s⁻¹.

And the kcat/Km [7]?
The kcat/Km was 1.2 ×10⁴ /M/s.

How did the Km [1] turn out when CO/N=C(\C(=O)N[C@@H]1C(=O)N2C(C(=O)[O-])=C(C[N+]3(C)CCCC3)CS[C@H]12)c1csc(N)n1 was run?
Its Km is 0.8 µM.

What about the kcat [1] of the same compound?
Its kcat is 0.35 s⁻¹.

What about the MIC [2] of the same compound?
Its MIC is 4 µg/mL (≈ 8.32 µM).

And the MIC [3]?
Its MIC is 0.25 µg/mL (≈ 0.52 µM).

And the kcat/Km [5]?
Its kcat/Km is 6.6 ×10⁵ /M/s.

And the Km [6]?
The Km was 11 µM.

What about the kcat [6] of the same compound?
Its kcat is 7 s⁻¹.

And the kcat/Km [7]?
The kcat/Km was 4.4 ×10⁵ /M/s.

How did the Km [1] turn out when CC1(C)S[C@@H]2[C@H](NC(=O)Cc3ccccc3)C(=O)N2[C@H]1C(=O)O was run?
The Km was 90 µM.

What about the kcat [1] of the same compound?
Its kcat is 54 s⁻¹.

And the kcat/Km [5]?
Its kcat/Km is 6.2 ×10⁵ /M/s.

And the Km [6]?
Its Km is 520 µM.

What about the kcat [6] of the same compound?
The kcat was 320 s⁻¹.

And the kcat/Km [7]?
Its kcat/Km is 6.2 ×10⁵ /M/s.

O=C(Cc1cccs1)N[C@@H]1C(=O)N2C(C(=O)O)=C(/C=C/c3ccc([N+](=O)[O-])cc3[N+](=O)[O-])CS[C@H]12 was tested. Which Km [1] did it give?
Its Km is 9 µM.

And the kcat [1]?
Its kcat is 55 s⁻¹.

And the kcat/Km [5]?
The kcat/Km was 2.3 ×10⁶ /M/s.

And the Km [6]?
Its Km is 27 µM.

And the kcat [6]?
The kcat was 63 s⁻¹.

What about the kcat/Km [7] of the same compound?
Its kcat/Km is 6.1 ×10⁶ /M/s.

Which Km [1] does the source give for CC1(C)S[C@@H]2[C@H](NC(=O)[C@H](N)c3ccccc3)C(=O)N2[C@H]1C(=O)O [AMPICILLIN] here?
Its Km is 103 µM.

And the kcat [1]?
Its kcat is 65 s⁻¹.

What about the MIC [2] of the same compound?
The MIC was 256 µg/mL (≈ 733 µM).

And the MIC [3]?
Its MIC is 4 µg/mL (≈ 11.4 µM).

What about the MIC [4] of the same compound?
The MIC was 64 µg/mL (≈ 183 µM).

What about the kcat/Km [5] of the same compound?
Its kcat/Km is 4.8 ×10⁶ /M/s.

What about the Km [6] of the same compound?
Its Km is 200 µM.

What about the kcat [6] of the same compound?
Its kcat is 950 s⁻¹.

What about the kcat/Km [7] of the same compound?
The kcat/Km was 6.3 ×10⁵ /M/s.

Which Km [1] does the source give for C[C@H]1[C@H](NC(=O)/C(=N\OC(C)(C)C(=O)O)c2csc(N)n2)C(=O)N1S(=O)(=O)O [AZTREONAM] here?
Its Km is over 1000 µM.

And the kcat [1]?
Its kcat is under 0.01 s⁻¹.

What about the Km [6] of the same compound?
Its Km is over 1000 µM.

And the kcat [6]?
Its kcat is under 0.01 s⁻¹.

How did the Km [1] turn out when CO/N=C(\C(=O)N[C@@H]1C(=O)N2C(C(=O)O)=C(COC(C)=O)CS[C@H]12)c1csc(N)n1 [CEFOTAXIME] was run?
The Km was 3 µM.

And the kcat [1]?
The kcat was 0.7 s⁻¹.

And the MIC [2]?
Its MIC is 8 µg/mL (≈ 17.6 µM).

And the MIC [3]?
The MIC was 0.25 µg/mL (≈ 0.549 µM).

What about the MIC [4] of the same compound?
The MIC was 32 µg/mL (≈ 70.3 µM).

What about the kcat/Km [5] of the same compound?
The kcat/Km was 3.5 ×10⁵ /M/s.

And the Km [6]?
Its Km is 4 µM.

What about the kcat [6] of the same compound?
The kcat was 1.3 s⁻¹.

What about the kcat/Km [7] of the same compound?
Its kcat/Km is 2.3 ×10⁵ /M/s.

CO[C@@]1(NC(=O)C2SC(=C(C(N)=O)C(=O)O)S2)C(=O)N2C(C(=O)O)=C(CSc3nnnn3C)CS[C@@H]21 (stereo partly specified) [CEFOTETAN] was tested. Which MIC [2] did it give?
The MIC was over 32 µg/mL.

What about the MIC [3] of the same compound?
The MIC was 0.25 µg/mL (≈ 0.434 µM).

And the MIC [4]?
Its MIC is 32 µg/mL (≈ 55.6 µM).

What does the source list for CO[C@@]1(NC(=O)Cc2cccs2)C(=O)N2C(C(=O)O)=C(COC(N)=O)CS[C@@H]21 [CEFOXITIN]?
MIC [2]: > 256 µg/mL; MIC [3]: 4 µg/mL (≈ 9.36 µM); MIC [4]: 256 µg/mL (≈ 599 µM)

What does the source list for CC(C)(O/N=C(\C(=O)N[C@@H]1C(=O)N2C(C(=O)[O-])=C(C[n+]3ccccc3)CS[C@H]12)c1csc(N)n1)C(=O)O [CEFTAZIDIME]?
Km [1]: 1.3 µM; kcat [1]: 1 s⁻¹; MIC [2]: 32 µg/mL (≈ 58.5 µM); MIC [3]: 0.25 µg/mL (≈ 0.457 µM); MIC [4]: 32 µg/mL (≈ 58.5 µM); kcat/Km [5]: 1.8 ×10⁵ /M/s; Km [6]: 44 µM; kcat [6]: 8 s⁻¹; kcat/Km [7]: 7.7 ×10⁵ /M/s

How did the MIC [2] turn out when CO/N=C(\C(=O)N[C@@H]1C(=O)N2C(C(=O)O)=C(CSc3nc(=O)c(O)nn3C)CS[C@H]12)c1csc(N)n1 [CEFTRIAXONE] was run?
Its MIC is 8 µg/mL (≈ 14.4 µM).

And the MIC [3]?
Its MIC is 0.25 µg/mL (≈ 0.451 µM).

And the MIC [4]?
Its MIC is 4 µg/mL (≈ 7.21 µM).

For CO/N=C(\C(=O)N[C@@H]1C(=O)N2C(C(=O)O)=C(COC(N)=O)CS[C@H]12)c1ccco1 [CEFUROXIME], which Km [1] is on record?
Its Km is 7 µM.

And the kcat [1]?
The kcat was 0.9 s⁻¹.

And the MIC [2]?
The MIC was 128 µg/mL (≈ 302 µM).

What about the MIC [3] of the same compound?
The MIC was 4 µg/mL (≈ 9.43 µM).

And the MIC [4]?
The MIC was 64 µg/mL (≈ 151 µM).

And the kcat/Km [7]?
The kcat/Km was 1.3 ×10⁵ /M/s.

How did the Km [1] turn out when CC(=O)OCC1=C(C(=O)O)N2C(=O)[C@@H](NC(=O)Cc3cccs3)[C@H]2SC1 [CEPHALOTHIN] was run?
The Km was 0.1 µM.

What about the kcat [1] of the same compound?
Its kcat is 0.4 s⁻¹.

What about the MIC [2] of the same compound?
Its MIC is 256 µg/mL (≈ 646 µM).

And the MIC [3]?
Its MIC is 4 µg/mL (≈ 10.1 µM).

What about the MIC [4] of the same compound?
Its MIC is 32 µg/mL (≈ 80.7 µM).

What about the kcat/Km [5] of the same compound?
The kcat/Km was 2.4 ×10⁶ /M/s.

And the Km [6]?
The Km was 21 µM.

And the kcat/Km [7]?
Its kcat/Km is 4 ×10⁶ /M/s.

Which results are given for C[C@@H](O)[C@H]1C(=O)N2C(C(=O)O)=C(SCCNC=N)C[C@H]12 [IMIPENEM ANHYDROUS]?
Km [1]: 7 µM; kcat [1]: 17 s⁻¹; MIC [2]: 2 µg/mL (≈ 6.68 µM); kcat/Km [5]: 1.2 ×10⁶ /M/s; Km [6]: 39 µM; kcat [6]: 46 s⁻¹; kcat/Km [7]: 2.4 ×10⁶ /M/s

With C[C@@H](O)[C@H]1C(=O)N2C(C(=O)O)=C(S[C@@H]3CN[C@H](C(=O)N(C)C)C3)[C@H](C)[C@H]12 [MEROPENEM] as the compound, how does the Km [1] read?
Its Km is 8.4 µM.

What about the kcat [1] of the same compound?
Its kcat is 0.05 s⁻¹.

What about the MIC [2] of the same compound?
Its MIC is 2 µg/mL (≈ 5.22 µM).

What about the MIC [3] of the same compound?
The MIC was at most 0.015 µg/mL.

And the MIC [4]?
Its MIC is 0.06 µg/mL (≈ 0.156 µM).

What about the kcat/Km [5] of the same compound?
The kcat/Km was 5 ×10⁵ /M/s.

What about the kcat/Km [7] of the same compound?
Its kcat/Km is 6 ×10³ /M/s.

CCN1CCN(C(=O)N[C@@H](C(=O)N[C@@H]2C(=O)N3[C@@H]2SC(C)(C)[C@@H]3C(=O)O)c2ccccc2)C(=O)C1=O [PIPERACILLIN] was tested. Which Km [1] did it give?
Its Km is over 200 µM.

What about the kcat [1] of the same compound?
The kcat was over 10 s⁻¹.

And the MIC [2]?
The MIC was 1 µg/mL (≈ 1.93 µM).

And the MIC [3]?
Its MIC is 1 µg/mL (≈ 1.93 µM).

And the MIC [4]?
The MIC was 1 µg/mL (≈ 1.93 µM).

What about the kcat/Km [5] of the same compound?
Its kcat/Km is 7.2 ×10⁵ /M/s.

And the kcat/Km [7]?
Its kcat/Km is 5.1 ×10⁴ /M/s.

For CO[C@@]1(NC(=O)C(C(=O)O)c2ccsc2)C(=O)N2[C@@H](C(=O)O)C(C)(C)S[C@@H]21 (stereo partly specified) [TEMOCILLIN], which Km [1] is on record?
The Km was over 1000 µM.

And the kcat [1]?
The kcat was over 0.75 s⁻¹.

And the MIC [2]?
Its MIC is 32 µg/mL (≈ 77.2 µM).

What about the MIC [3] of the same compound?
Its MIC is 16 µg/mL (≈ 38.6 µM).

What about the MIC [4] of the same compound?
Its MIC is 16 µg/mL (≈ 38.6 µM).

And the kcat/Km [5]?
Its kcat/Km is under 100 M⁻¹ s⁻¹.

And the Km [6]?
Its Km is over 2000 µM.

What about the kcat/Km [7] of the same compound?
The kcat/Km was 7.5 ×10² /M/s.

For CC1(C)S[C@@H]2[C@H](NC(=O)[C@H](C(=O)O)c3ccsc3)C(=O)N2[C@H]1C(=O)O [TICARCILLIN], which Km [1] is on record?
Its Km is 180 µM.

What about the kcat [1] of the same compound?
Its kcat is 30 s⁻¹.

And the MIC [2]?
The MIC was 512 µg/mL (≈ 1330 µM).

And the MIC [3]?
Its MIC is 8 µg/mL (≈ 20.8 µM).

And the MIC [4]?
The MIC was 256 µg/mL (≈ 666 µM).

And the kcat/Km [5]?
The kcat/Km was 1.5 ×10³ /M/s.

And the Km [6]?
The Km was 740 µM.

What about the kcat [6] of the same compound?
Its kcat is 1.1 s⁻¹.

What about the kcat/Km [7] of the same compound?
The kcat/Km was 1.5 ×10⁵ /M/s.
